Assay results reported in the NIST ThermoML archive (doi:10.1016/j.jct.2012.06.009).
Numbers after ± are expanded uncertainties.

Assay: activity coefficient (dimensionless); of the first substance listed, at infinite dilution; xn = mol fraction of the nth substance listed
Conditions: 101 kPa, Liquid, Chromatography, x1 = 0

SMILES	activity coefficient (314.1 K)	activity coefficient (314.24 K)	activity coefficient (333.26 K)	activity coefficient (333.38 K)	activity coefficient (353.25 K)	activity coefficient (353.3 K)	other results
Cc1ccccc1 [toluene] + CCCCCCCCCC(=O)O	1.15 ± 0.095	1.17 ± 0.097	1.12 ± 0.093	1.12 ± 0.092	1.14 ± 0.095	1.16 ± 0.096	–
C=CCCCC [hex-1-ene] + CCCCCCCCCCCCCCCC(=O)O	–	–	–	–	–	–	activity coefficient (340.17 K): 1.17 ± 0.097; activity coefficient (348.01 K): 1.18 ± 0.098; activity coefficient (358.22 K): 1.2 ± 0.1
CC(C)=O [acetone] + CCCCCCCCCCCCCC(=O)O	1.43 ± 0.12	1.46 ± 0.12	1.36 ± 0.11	1.35 ± 0.11	1.3 ± 0.11	1.27 ± 0.11	–
CC(C)=O [acetone] + CCCCCCCCCCCC(=O)O	1.59 ± 0.14	1.59 ± 0.14	1.45 ± 0.12	1.47 ± 0.12	1.33 ± 0.11	1.36 ± 0.12	–
ClCCCl [1,2-dichloroethane] + CCCCCCCCCCCC(=O)O	1.38 ± 0.12	1.37 ± 0.12	1.3 ± 0.11	1.32 ± 0.11	1.23 ± 0.1	–	–
CCCCCC [hexane] + CCCCCCCCCC(=O)O	1.75 ± 0.15	1.77 ± 0.15	1.73 ± 0.15	1.7 ± 0.14	–	1.65 ± 0.14	–
CCCCCC [hexane] + CCCCCCCCCCCCCC(=O)O	–	–	–	–	–	–	activity coefficient (338.27 K): 1.34 ± 0.11; activity coefficient (348.3 K): 1.33 ± 0.11; activity coefficient (358.33 K): 1.33 ± 0.11
CCCCCCC [heptane] + CCCCCCCCCC(=O)O	1.87 ± 0.16	1.9 ± 0.16	1.83 ± 0.16	1.82 ± 0.16	–	1.75 ± 0.15	–
ClC(Cl)Cl [trichloromethane] + CCCCCCCCCC(=O)O	0.823 ± 0.069	0.846 ± 0.07	0.85 ± 0.071	0.827 ± 0.069	–	0.825 ± 0.069	–
CC(C)CC(C)(C)C [2,2,4-trimethylpentane] + CCCCCCCCCCCCCCCC(=O)O	–	–	–	–	–	–	activity coefficient (340.19 K): 1.5 ± 0.13; activity coefficient (348.01 K): 1.46 ± 0.12; activity coefficient (358.32 K): 1.42 ± 0.12
CO [methanol] + CCCCCCCCCCCC(=O)O	1.81 ± 0.15	–	1.67 ± 0.14	–	–	1.58 ± 0.13	activity coefficient (328.82 K): 1.9 ± 0.16; activity coefficient (343.65 K): 1.66 ± 0.14
CCCCO [butan-1-ol] + CCCCCCCCCCCCCC(=O)O	1.49 ± 0.13	1.54 ± 0.13	1.45 ± 0.12	1.42 ± 0.12	1.22 ± 0.11	1.32 ± 0.12	–
CC(C)O [propan-2-ol] + CCCCCCCCCCCC(=O)O	1.5 ± 0.13	1.53 ± 0.13	1.33 ± 0.11	1.37 ± 0.12	1.22 ± 0.1	1.24 ± 0.1	–
CCOC(C)=O [ethyl acetate] + CCCCCCCCCCCCCCCC(=O)O	–	–	–	–	–	–	activity coefficient (340.19 K): 1.28 ± 0.11; activity coefficient (347.93 K): 1.2 ± 0.1; activity coefficient (358.22 K): 1.16 ± 0.096
CC(C)CC(C)(C)C [2,2,4-trimethylpentane] + CCCCCCCCCC(=O)O	2.02 ± 0.17	1.98 ± 0.17	1.91 ± 0.16	–	1.86 ± 0.16	–	–
CCCO [propan-1-ol] + CCCCCCCCCCCCCCCC(=O)O	–	–	–	–	–	–	activity coefficient (340.19 K): 1.74 ± 0.15; activity coefficient (348.01 K): 1.63 ± 0.14; activity coefficient (358.32 K): 1.5 ± 0.13
Clc1ccccc1 [chlorobenzene] + CCCCCCCCCCCCCCCC(=O)O	–	–	–	–	–	–	activity coefficient (340.19 K): 0.974 ± 0.08; activity coefficient (348.01 K): 0.957 ± 0.079; activity coefficient (358.22 K): 0.974 ± 0.08
ClC=C(Cl)Cl [trichloroethene] + CCCCCCCCCCCC(=O)O	0.952 ± 0.078	0.967 ± 0.079	0.944 ± 0.078	0.951 ± 0.078	0.933 ± 0.077	–	–
Clc1ccccc1 [chlorobenzene] + CCCCCCCCCCCC(=O)O	1.11 ± 0.091	1.12 ± 0.092	1.08 ± 0.089	–	1.07 ± 0.088	–	activity coefficient (343.65 K): 1.07 ± 0.089
CCOC(C)=O [ethyl acetate] + CCCCCCCCCCCCCC(=O)O	1.24 ± 0.1	1.21 ± 0.1	1.19 ± 0.099	1.19 ± 0.099	1.13 ± 0.094	1.12 ± 0.093	–
ClC(Cl)Cl [trichloromethane] + CCCCCCCCCCCC(=O)O	0.81 ± 0.068	0.81 ± 0.068	0.832 ± 0.069	0.818 ± 0.068	–	0.839 ± 0.07	–
